Assay results taken from patent US20260200929A1, “PYRROLO[3,2-D]PYRIMIDIN-4-ONE DERIVATIVE, AND PREPARATION METHOD THEREFOR AND MEDICAL USE THEREOF” (SHENZHEN SALUBRIS PHARMACEUTICALS CO., LTD., priority 2022, published 2026).
Where two headings read alike, the source gives them in different places. One block for each compound: values may come before it.

Key:
[1] = biological target: T1, human myeloperoxidase (hMPO) (Homo sapiens, UniProt P05164); experiment: Inhibition of human myeloperoxidase (hMPO) peroxidation cycle in vitro; assay type: biochemical; conditions: 3'-(p-aminophenyl) fluorescein and H2O2 at Km
T1 construct: purchased PLANTANATURAL 700-03-001
Experimental: 50 μL of 2×substrate (composed of 3′-(p-aminophenyl) fluorescein and H2O2, with 3′-(p-aminophenyl) fluorescein and H2O2 both at Km concentration, purchased from Invitrogen, A36003) to a black opaque low-protein-adsorption 96-well plate (purchased from PerkinElmer, 6005270), and 45 μL of 2×compound at different concentrations (DMSO final concentration of 1%) was added. After thorough blowing and uniform mixing of a mixture, […] of […] human myeloperoxidase (purchased from PLANTANATURAL, 700-03-001) was added and mixed uniformly, and an enzyme-linked immunosorbent assay reader was immediately used at a wavelength of Ex/Em:488/520 nm to read fluorescence values for 0-30 minutes (read every 20 seconds) using a dynamic mode. Different concentrations of compound inhibitors were calculated: inhibition rate (%)=[1−(Slopecontrol−Slopecpd)/SlopeControl−SlopeBlank)]*100, where SlopeBlank is a slope of a control without the compound and an MPO well at 0-5 minutes ([…] reading/reaction time t); SlopeControl is a slope of the well without the compound (containing 1% DMSO) at 0-5 minutes (linear reaction stage); and Slopecpd is a slope of the compound at 0-5 minutes. Using a logarithmic value of the compound concentration as an abscissa and the inhibition rate as an ordinate, a 4-parameter nonlinear regression curve was fitted to calculate the IC50 value (Y=Bottom+(Top-Bottom)/(1+10^((Log IC50−X)*HillSlope)), where Hillslope represents the slope of the fitted curve, and IC50 represents the half inhibitory concentration. Test results were shown in Table 1.

[2] = Pharmacokinetic study in rats; assay type: in vivo, SD rats; conditions: for F: 5 mg/kg p.o versus 1 mg/kg i.v; for AUC(0-t) / Cmax / clearance / half-life: male, SD, rat, plasma
Excerpt: SD rats: male, 180-350 g, purchased from Zhejiang Vital River Laboratory Animal Technology Co., Ltd.
Reagents: dimethyl sulfoxide (DMSO), polyethylene glycol 400 (PEG-400), normal saline, acetonitrile, formic acid, propranolol (internal standard) are all commercially available.
Instrument: Thermo Fisher Scientific LC-MS (Ultimate 3000 UPLC, TSQ QUANTUMN ULTRA triple quadrupole mass spectrometer).
The compound was weighed and dissolved in a DMSO-PEG-400 normal saline (5:60:35, v/v/v) system. After intravenous administration or intragastric administration to rats, 200 μL of venous blood was collected in an EDTA-K2 anticoagulation tube at 15 minutes, 30 minutes, 1 hour, 2 hours, 5 hours, 7 hours, and 24 hours (additional 5 minutes for an IV group) and centrifuged at 12000 rpm for 2 minutes. Plasma was taken and frozen and preserved at −80° C. for testing. A certain amount of samples for test was precisely weighed and dissolved in DMSO to 2 mg/mL as a stock solution. An appropriate amount of compound stock solution was accurately sucked, and diluted by adding acetonitrile to prepare a standard series solution. 4 μL of each of the above standard series solution was accurately sucked, and added to 36 µL of blank plasma, vortex mixing was performed to prepare plasma samples equivalent to plasma concentrations of 1 ng/mL, 3 ng/mL, 5 ng/mL, 10 ng/mL, 30 ng/mL, 100 ng/mL, 300 ng/mL, 1000 ng/mL, and 3000 ng/mL. Dual sample analysis was performed for each concentration to establish a standard curve. 30 μL of plasma (5-fold dilution of plasma of intravenous administration for 5 minutes, 15 minutes, and 30 minutes) was taken, a propranolol acetonitrile solution (internal standard, 50 ng/mL) was added to precipitate the protein, after 100 μL water was added for even vortex mixing, centrifugation was performed at 4000 rpm for 5 minutes, and supernatants were taken for LC-MS/MS analysis. LC-MS detection conditions were as follows: • chromatographic column: YMC-Triart C18 50×3.0 mmI.D. S-3 μm, 12 nm
A mobile phase A: water (0.1% formic acid), a mobile phase B: acetonitrile, a flow rate: 0.5 mL/min, gradient elution: […]
After LC-MS detection of blood drug concentration, WinNonlin 6.1 software was used to calculate pharmacokinetic parameters using non compartmental model method.

CYP1A2 = experiment: Enzyme induction test, CYP1A2 mRNA level in human primary hepatocytes; assay type: in vitro ADME; conditions: CYP1A2, 10 μM, 3 days
Excerpt: (§1) Material: Williams' Medium E (without phenol red) was purchased from Sigma Aldrich Trading Co., Ltd; Williams+ Medium E, Recombinant human insulin, GlutaMAX, and HEPES were purchased from Life Technologies; Isotonic Percoll was purchased from General Electric; Fetal bovine serum was purchased from Corning; Dexamethasone was commercially available; CellTiter-Fluor™ Cell Viability Assay kit was purchased from Promega; Taqman Gene Expression Assay probe (20×, CYP1A2, FAM labeled), Taqman Gene Expression Assay probe (20×, CYP2B6, FAM labeled), Taqman Gene Expression Assay probe (20×, CYP3A4, FAM labeled), and Taqman Gene Expression Assay probe (20×, ACTB, VIC labeled) were purchased from AB (Applied Biosystems); and human primary hepatocytes were purchased from BioIVT.
(§2) The test compound, a positive inducer, a negative inducer, and internal standard were accurately weighed to prepare a stock solution with the corresponding concentration. A cell thawing solution and incubation buffer were prepared, and related reagents and consumables of mRNA extraction, reverse transcription, and fluorescence quantitative PCR were prepared.
(§3) The frozen human primary hepatocytes were thawed and inoculated onto a suitable cell culture plate at a certain density for monolayer cell culture to meet cell growth requirements. […]

CYP2B6 = experiment: Enzyme induction test, CYP2B6 mRNA level in human primary hepatocytes; assay type: in vitro ADME; conditions: CYP2B6, 10 μM, 3 days
Excerpt: as §1, §2, §3

CYP3A4 = experiment: Enzyme induction test, CYP3A4 mRNA level in human primary hepatocytes; assay type: in vitro ADME; conditions: CYP3A4, 10 μM, 3 days
Excerpt: as §1, §2, §3

CYP3A = CYP3A (Homo sapiens, UniProt P08684); experiment: Enzyme inhibition test, CYP3A in human liver microsomes; assay type: in vitro ADME; conditions: 0.2 mg/mL human liver microsomes
Experimental: Material: midazolam and testosterone were purchased from Cerilliant and PANPHY; ketoconazole was purchased from MCE; and human liver microsomes were purchased from Corning.
The inhibitory potential of the compound on cytochrome P450 enzyme CYP3A was evaluated using a phosphate buffer saline (100 mM, pH 7.4) system containing 0.2 mg/mL human liver microsomes. The test concentrations of the compound were 0.068 μM, 0.206 μM, 0.62 μM, 1.85 μM, 5.56 μM, 16.67 μM, and 50 μM. The positive substrates in the incubation system were 1 μM midazolam and 40 μM testosterone (CYP3A), respectively. The concentration of the positive inhibitor ketoconazole (CYP3A) in the incubation system was 0.05 μM. Incubation was carried out at 37° C., and an NADPH solution with a final concentration of 1 mM was added to initiate a reaction. The incubation time was 10 minutes. After incubation, all samples were added to 300 μL of acetonitrile solution containing 3% formic acid and internal standard (0.5 μM tolbutamide) to precipitate the protein, and the metabolic product generation of the labeled substrate was detected by UPLC-MS/MS to calculate an IC50 value of compound inhibition.

[3] = pH 7.4, probe midazolam (1 μM), CYP3A (Midazolam)
[4] = pH 7.4, probe testosterone (40 μM), CYP3A (Testosterone)

Sequence of CYP3A (P08684 2-503): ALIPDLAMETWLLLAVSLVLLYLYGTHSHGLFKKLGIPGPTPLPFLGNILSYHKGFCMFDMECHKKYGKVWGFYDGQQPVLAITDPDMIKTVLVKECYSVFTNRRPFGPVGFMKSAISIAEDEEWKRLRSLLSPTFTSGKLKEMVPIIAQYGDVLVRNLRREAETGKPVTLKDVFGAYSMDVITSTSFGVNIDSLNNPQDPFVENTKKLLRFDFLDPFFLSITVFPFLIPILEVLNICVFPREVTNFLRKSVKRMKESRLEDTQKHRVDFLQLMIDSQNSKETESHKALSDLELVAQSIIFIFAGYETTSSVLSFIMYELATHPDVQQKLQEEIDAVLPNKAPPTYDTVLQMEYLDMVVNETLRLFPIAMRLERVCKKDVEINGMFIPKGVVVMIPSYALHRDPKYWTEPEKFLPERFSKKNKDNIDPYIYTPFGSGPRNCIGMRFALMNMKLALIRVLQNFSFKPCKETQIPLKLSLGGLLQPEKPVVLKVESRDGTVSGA
T1 sequence (P05164 279-745 limits assumed): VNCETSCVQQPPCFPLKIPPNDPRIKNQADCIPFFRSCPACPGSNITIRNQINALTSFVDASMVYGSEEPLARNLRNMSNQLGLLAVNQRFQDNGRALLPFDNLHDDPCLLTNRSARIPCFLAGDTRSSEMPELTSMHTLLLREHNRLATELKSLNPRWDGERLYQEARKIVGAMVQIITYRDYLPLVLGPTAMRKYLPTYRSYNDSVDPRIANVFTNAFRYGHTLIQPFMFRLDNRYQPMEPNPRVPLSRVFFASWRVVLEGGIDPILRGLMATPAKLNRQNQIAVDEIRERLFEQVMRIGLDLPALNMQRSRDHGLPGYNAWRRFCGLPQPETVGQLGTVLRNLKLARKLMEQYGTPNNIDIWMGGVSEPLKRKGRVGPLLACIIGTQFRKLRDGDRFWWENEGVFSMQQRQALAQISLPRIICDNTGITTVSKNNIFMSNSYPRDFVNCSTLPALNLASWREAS
T1 sequence (P05164 165-273 limits assumed): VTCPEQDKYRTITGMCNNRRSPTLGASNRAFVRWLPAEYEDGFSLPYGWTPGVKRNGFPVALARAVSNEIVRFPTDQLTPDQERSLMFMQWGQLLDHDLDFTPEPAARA

IC50 [1]: 4.64 nM | F [2]: 57.2% | AUC(0-t) ([2]; iv, 1 mg/kg i.v): 1270 ng·h/mL | Cmax ([2]; iv, 1 mg/kg i.v): 1900 ng/mL | clearance ([2]; iv, 1 mg/kg i.v): 13 mL/min/kg | half-life ([2]; iv, 1 mg/kg i.v): 4.98 h | AUC(0-t) ([2]; po, 5 mg/kg p.o): 3630 ng·h/mL | Cmax ([2]; po, 5 mg/kg p.o): 1700 ng/mL | half-life ([2]; po, 5 mg/kg p.o): 3.66 h | mRNA Relative positive induction percentage (CYP1A2): −0.29% | mRNA Relative positive induction percentage (CYP2B6): 1.68% | mRNA Relative positive induction percentage (CYP3A4): 2.10% | IC50 at 10 min (CYP3A; [3]): > 50000 nM | IC50 at 10 min (CYP3A; [4]): 27300 nM
SMILES: N[C@@H]1CCOc2cccc(Cn3c(=S)[nH]c(=O)c4[nH]ccc43)c21 (single isomer, unassigned) [Compound 6A]

IC50 [1]: 4.83 nM | F [2]: 83.3% | AUC(0-t) ([2]; iv, 1 mg/kg i.v): 293 ng·h/mL | Cmax ([2]; iv, 1 mg/kg i.v): 800 ng/mL | clearance ([2]; iv, 1 mg/kg i.v): 52.7 mL/min/kg | half-life ([2]; iv, 1 mg/kg i.v): 2.59 h | AUC(0-t) ([2]; po, 5 mg/kg p.o): 1220 ng·h/mL | Cmax ([2]; po, 5 mg/kg p.o): 500 ng/mL | half-life ([2]; po, 5 mg/kg p.o): 3.44 h | mRNA Relative positive induction percentage (CYP1A2): 0.15% | mRNA Relative positive induction percentage (CYP2B6): 8.41% | mRNA Relative positive induction percentage (CYP3A4): 7.93% | IC50 at 10 min (CYP3A; [3]): > 50000 nM | IC50 at 10 min (CYP3A; [4]): 19700 nM
SMILES: N[C@@H]1CCCc2cccc(Cn3c(=S)[nH]c(=O)c4[nH]ccc43)c21 (single isomer, unassigned) [Compound 7A, 1-((8-amino-5,6,7,8-tetrahydronaphthalene-1-yl)methyl)-2-thio-1,2,3,5-tetrahydro-4H-pyrrolo[3,2-d]pyrimidin-4-one]

IC50 [1]: 9.92 nM
SMILES: N[C@@H]1CCCOc2cccc(Cn3c(=S)[nH]c(=O)c4[nH]ccc43)c21 (single isomer, unassigned) [Compound 15A, 1-((5-amino-2,3,4,5-tetrahydrobenzo[b]oxypyrimidin-6-yl)methyl)-2-thio-1,2,3,5-tetrahydroxy-4H-pyrrolo[3,2-d]pyrimidin-4-one]

Further lines, the compound ahead of its results:

SMILES: NC1CCc2c(Cl)ccc(Cn3c(=S)[nH]c(=O)c4[nH]ccc43)c21 (stereo not drawn) [Compound 1, 1-((3-amino-7-chloro-2,3-dihydro-1H-inden-4-yl)methyl)-2-thio-1,2,3,5-tetrahydro-4H-pyrrolo[3,2-d]pyrimidin-4-one]
IC50 [1]: 51.6 nM

SMILES: NC1COc2c(Cl)ccc(Cn3c(=S)[nH]c(=O)c4[nH]ccc43)c21 (stereo not drawn) [Compound 2, 1-((3-amino-7-chloro-2,3-dihydrobenzofuran-4-yl)methyl)-2-thio-1,2,3,5-tetrahydro-4H-pyrrolo[3,2-d]pyrimidin-4-one]
IC50 [1]: 33 nM

SMILES: NC1COc2cccc(Cn3c(=S)[nH]c(=O)c4[nH]ccc43)c21 (stereo not drawn) [Compound 3]
IC50 [1]: 31 nM

SMILES: NC1CCOc2c(Cl)ccc(Cn3c(=S)[nH]c(=O)c4[nH]ccc43)c21 (stereo not drawn) [Compound 5, 1-((4-amino-8-chlorochroman-5-yl)methyl)-2-thio-1,2,3,5-tetrahydro-4H-pyrrolo[3,2-d]pyrimidin-4-one]
IC50 [1]: 16.1 nM

SMILES: NC1CCOc2cccc(Cn3c(=S)[nH]c(=O)c4[nH]ccc43)c21 (stereo not drawn) [Compound 6, 1-((4-aminochroman-5-yl)methyl)-2-thio-1,2,3,5-tetrahydro-4H-pyrrolo[3,2-d]pyrimidin-4-one]
IC50 [1]: 8.02 nM | F [2]: 48.6% | AUC(0-t) ([2]; iv, 1 mg/kg i.v): 827 ng·h/mL | clearance ([2]; iv, 1 mg/kg i.v): 19.9 mL/min/kg | half-life ([2]; iv, 1 mg/kg i.v): 3.36 h | Cmax ([2]; iv, 1 mg/kg i.v, read-out: Cmax): 620 ng/mL | AUC(0-t) ([2]; po, 5 mg/kg p.o): 2010 ng·h/mL | half-life ([2]; po, 5 mg/kg p.o): 5.13 h | Cmax ([2]; po, 5 mg/kg p.o, read-out: Cmax): 305 ng/mL

SMILES: NC1CCCc2cccc(Cn3c(=S)[nH]c(=O)c4[nH]ccc43)c21 (stereo not drawn) [Compound 7, 1-((8-amino-5,6,7,8-tetrahydronaphthalene-1-yl)methyl)-2-thio-1,2,3,5-tetrahydro-4H-pyrrolo[3,2-d]pyrimidin-4-one]
IC50 [1]: 10.7 nM

SMILES: Cc1c[nH]c2c(=O)[nH]c(=S)n(Cc3cccc4c3C(N)CCO4)c12 (stereo not drawn) [Compound 16]
IC50 [1]: 19.6 nM

SMILES: COc1c[nH]c2c(=O)[nH]c(=S)n(Cc3cccc4c3C(N)CCO4)c12 (stereo not drawn) [Compound 17, 1-((4-aminochroman-5-yl)methyl)-7-methoxyl-2-thio-1,2,3,5-tetrahydro-4H-pyrrolo[3,2-d]pyrimidin-4-one]
IC50 [1]: 23.4 nM
